Series [1] can be described thus: UV/vis absorption and emission. Format: physicochemical. The conditions noted are these: for Extinction Coefficient: in M-1·cm-1 (unit assumed). The method, then: Compound 1 (80 mg), 3-(4-carboxybutyl)phenylboronic acid (40 mg), and cesium carbonate (20 mg) are stirred into 1:1 water:ethanol (10 ml) under nitrogen at room temperature. Tetrakis(triphenylphosphine)palladium(0) (10 mg) is added to the reaction mixture. The mixture was refluxed for 4 hours, and the solvent and volatile compounds are evaporated under vacuum. The crude product is purified by flash chromatography on reverse-phase C18-functionalized silica by eluting with a 1:4 acetonitrile:water mixture. The purified product 3 has UV/vis absorption max of λMeOH=680 nm, ε=229,000; λPBS=676 nm, ε=239,000.
Compound 7 (80 mg), 3-(2-carboxyethyl)phenylboronic acid (40 mg), and cesium carbonate (20 mg) were stirred into water (20 mL) under nitrogen at room temperature. Tetrakis(triphenylphosphine)palladium (0) (10 mg) were added to the reaction mixture. The mixture was refluxed for 4 h, and the solvent and volatile compounds then were evaporated under vacuum. The crude product was purified by flash chromatography on reverse-phase silica with an acetonitrile/water mixture as the eluent. The purified compound had λMeOH=680 nm, λPBS=672 nm, ε=160,000.

The target of the next series is T1, HRP (Armoracia rusticana, UniProt P00433).
T1 sequence (P00433 31-338): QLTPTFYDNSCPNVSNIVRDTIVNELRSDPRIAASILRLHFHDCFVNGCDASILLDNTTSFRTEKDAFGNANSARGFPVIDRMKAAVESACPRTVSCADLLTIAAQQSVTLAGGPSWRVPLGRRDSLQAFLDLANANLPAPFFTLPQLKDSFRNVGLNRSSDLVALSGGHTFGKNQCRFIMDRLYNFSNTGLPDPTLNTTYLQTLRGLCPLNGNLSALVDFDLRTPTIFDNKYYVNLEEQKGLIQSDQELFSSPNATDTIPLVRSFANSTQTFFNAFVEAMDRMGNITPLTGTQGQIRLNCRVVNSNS
In words: 800 HRP substrate test of DIR780F2-P, with and without enzyme, varied pH and Triton X-100. Format: biochemical, horseradish. The conditions noted are these: two hours at ambient temperature. An excerpt: Their efficacies as 800 HRP substrates have been tested in the ELISA format.

Series [2] concerns ROS generation in RAW264.7 macrophages. As to the kind of experiment: Imaging LPS-induced ROS generation in RAW264.7 macrophages by fluorescence microscope. Format: cell-based, mouse. The conditions noted are these: RAW264.7 cells, 5 μM hydrocyanines, 30 min.
Series [3] can be described thus: Cell permeability of reduced dyes. The class given is in vitro ADME.
The nature of series [4]: Water solubility of reduced dyes. The class given is physicochemical.
In another series the test system is β actin in A431 lysate. As to the kind of experiment: Western blot detection with chemifluorescent substrates, A431 lysate probed with mouse anti-β actin and HRP goat anti-mouse antibodies. Details: species or system Human. An excerpt:
Use of H-IR780F2 and H-IRDye® 800CW for blot imaging was compared to a commercially-available 680 HRP ELISA substrate (see FIG. 15). 4-12% Bis-Tris gels were loaded with 2-fold, 7-point serial dilutions of A431 lysate (high conc.=[…]), electrophoresed, transferred to Odyssey Nitrocellulose, blocked with SeaBlock Blocking Buffer (with ProClin preservative). The blots were probed with mouse anti-β actin antibodies, followed by HRP goat anti-mouse antibodies (FIG. 15, A-D) or dye-conjugated goat anti-mouse antibodies (FIG. 15, E-F). Blots probed with HRP goat anti-mouse antibodies were incubated for 5 min with chemifluorescent substrates in buffer containing hydrogen peroxide. H-IRDye® 800CW and H-IR780F2 were tested at 10 μM with 50-200 μM H2O2. HRP 680 ELISA substrate was used according to published protocols (i.e., LI-COR product no. 926-34300).
The basic workflow remains unchanged and therefore, the chemifluorescent substrate based analysis is amenable to other methods of protein analysis, such as ELISAs and protein arrays.
In general terms: In western blotting, separated proteins are transferred to a membrane and probed.

For series [5], the target named is T2, goat anti-mouse HRP-labeled antibody (GAM-HRP) (Armoracia rusticana, UniProt P00433).
T2 sequence (P00433 31-338 limits assumed): T1 sequence (P00433 31-338)
As to the kind of experiment: H-IR 780 / D-IR 780 as HRP substrate with HRP-labeled antibody in 96-well plate. The class given is biochemical, horseradish. The conditions noted are these: 10 μM substrate, HRP 800 Assay Buffer pH 3.0, 10 minutes ambient temperature, Odyssey 800 nm channel. An excerpt:
Reduced hydrocyanine dyes (H- or D-versions) are nonfluorescent, but turn fluorescent upon oxidation. This activation property was exploited to utilize the reduced hydrocyanine dyes as horseradish peroxidase (HRP) substrates. In certain embodiments of an enzymatic assay, the hydrocyanines can be oxidized by HRP using hydrogen peroxide as the oxidizing agent, yielding a fluorescent signal. In some preferred embodiments, this fluorescent signal's wavelength can range from 530-900 nm depending on the structure of the dye.
HRP 800 Assay Buffer: The HRP 800 Assay Buffer contains 60 μM Hydrogen Peroxide, 0.2 μg/mL Acetanilide, 0.02% Triton X−100, in 100 mM Citrate Buffer, pH 3.0.
H-IR 780 Substrate solution: 10 μM H-IR 780 in the HRP 800 Assay Buffer.
D-IR 780 Substrate solution: 10 μM D-IR 780 in the HRP 800 Assay Buffer.
The utility of the H-IR 780 and D-IR 780 as a HRP substrate was tested by reaction of the dye with an enzyme-labeled antibody. The substrate, when oxidized by HRP and hydrogen peroxide, yields a fluorescent signal at approximately 800 nm in the NIR. […] Wells B12, C12 and D12 received 10 μL of PBS buffer (pH 7.2) and were used as a control to measure the background fluorescence. […]

Consider eight compounds from US10100198B2, “Application of reduced dyes in imaging” (LI-COR, Inc., priority 2011, dated 2018).

“And” between values parts separate entries of the source, which are not always exact repeats. Identical values can stand only once.

In the case of `CC1(C)C(/C=C/C(=C/C=C2/N(CCCS(=O)(=O)[O-])c3ccc4c(S(=O)(=O)[O-])cc(S(=O)(=O)[O-])cc4c3C2(C)C)c2cccc(CCCCC(=O)O)c2)=[N+](CCCS(=O)(=O)[O-])c2ccc3c(S(=O)(=O)[O-])cc(S(=O)(=O)[O-])cc3c21.[Na+].[Na+].[Na+].[Na+].[Na+]` [Compound 3, Sodium 2-((1E,3Z,5E)-3-(3-(4-Carboxybutyl)phenyl)-5-(1,1-dimethyl-6,8-disulfonato-3-(3-sulfonatopropyl)-1H-benzo[e]indol-2(3H)-ylidene)penta-1,3-dienyl)-1,1-dimethyl-3-(3-sulfonatopropyl)-1H-benzo[e]indolium-6,8-disulfonate], the “Max. Abs.” value stood at 680 nm in series [1] (MeOH) and 676 nm in series [1] (PBS). For the same compound, the “Extinction Coefficient” value in series [1] (MeOH) is 229,000; in series [1] (PBS) it was 239,000.
Take `CC1(C)C(/C=C/C(=C/C=C2/N(CCCS(=O)(=O)[O-])c3ccc(S(=O)(=O)[O-])cc3C2(C)C)c2cccc(CCC(=O)O)c2)=Nc2c1cc(Cl)c[n+]2CCCS(=O)(=O)[O-].[Na+].[Na+]` [Compound 8, Sodium (E)-2-((2Z,4E)-3-(3-(2-Carboxyethyl)phenyl)-5-(5-chloro-3,3-dimethyl-7-(3-sulfonatopropyl)-3H-pyrrolo[2,3-b]pyridin-7-ium-2-yl)penta-2,4-dienylidene)-3,3-dimethyl-1-(3-sulfonatopropyl)indoline-5-sulfonate]: in series [1] (MeOH), the “Max. Abs.” value is 680 nm, the “Max. Emis.” value is reported as 694 nm and the “Extinction Coefficient” value was 170,000. In series [1] (PBS), the “Max. Abs.” value was found to be 672 nm, the “Max. Emis.” value was 694 nm and the “Extinction Coefficient” value is on record as 160,000.
`[2H]C1(C=CC2=C(c3cccc(F)c3F)C(=CC=C3N(CCC)c4ccccc4C3(C)C)CCC2)N(CCC)c2ccccc2C1(C)C` (stereo not drawn) [DIR780F2-P]: the “+Enzyme signal” value at HRP (pH 5, Triton X-100 0.01%) was 111403 and 107251 and 95434 and 93017; at HRP (pH 5, Triton X-100 0.05%), 110308 and 116984 and 91720 and 95384; on HRP (pH 5, Triton X-100 0.1%) it was 86168 and 78778 and 79940 and 81063; at HRP (pH 6, Triton X-100 0.01%) it was 65943 and 71002 and 70952 and 72922; at HRP (pH 6, Triton X-100 0.05%) it was 72420 and 71667 and 65401 and 73540; on HRP (pH 6, Triton X-100 0.1%), 73669 and 63411 and 72029 and 67718. The “Mean Background” value on HRP (pH 5, Triton X-100 0.01%) worked out at 17016; on HRP (pH 5, Triton X-100 0.05%), 16011; on HRP (pH 5, Triton X-100 0.1%), 14716; at HRP (pH 6, Triton X-100 0.01%) it was 13218; at HRP (pH 6, Triton X-100 0.05%), 15498; at HRP (pH 6, Triton X-100 0.1%), 17956. Moreover, the “Mean Signal” value at HRP (pH 5, Triton X-100 0.01%) was determined as 101776; at HRP (pH 5, Triton X-100 0.05%) it was 103599; on HRP (pH 5, Triton X-100 0.1%) it was 81487; at HRP (pH 6, Triton X-100 0.01%), 70205; at HRP (pH 6, Triton X-100 0.05%), 70757; on HRP (pH 6, Triton X-100 0.1%), 69207. For the same compound, the Signal-Background on HRP (pH 5, Triton X-100 0.01%) is on record as 84761; on HRP (pH 5, Triton X-100 0.05%), 87588; on HRP (pH 5, Triton X-100 0.1%) it was 66771; at HRP (pH 6, Triton X-100 0.01%), 56987; at HRP (pH 6, Triton X-100 0.05%) it was 55259; at HRP (pH 6, Triton X-100 0.1%) it was 51251. The “−Enzyme signal” value at HRP (pH 5, Triton X-100 0.01%) was 14729 and 17889 and 16731 and 18713; at HRP (pH 5, Triton X-100 0.05%), 15096 and 16995 and 15697 and 16257; at HRP (pH 5, Triton X-100 0.1%) it was 14612 and 15268 and 14653 and 14330; on HRP (pH 6, Triton X-100 0.01%), 12646 and 15381 and 12242 and 12600; on HRP (pH 6, Triton X-100 0.05%) it was 16006 and 17026 and 14644 and 14316; on HRP (pH 6, Triton X-100 0.1%), 21194 and 15983 and 19749 and 14897.
Turning to `CCCN1/C(=C/C=C/C2N(CCC)c3ccccc3C2(C)C)C(C)(C)c2ccccc21` (stereo not drawn) [H-Cy3], the “fluorescent intensity in LPS treated cells compared to untreated cells” value in series [2] is given as “increased fluorescent intensity in the LPS treated cells compared to the untreated cells”.
`CC1(C)\C(=C/C=C(Br)/C=C/C2N(CCCCCCO)c3ccccc3C2(C)C)N(CCCCCCO)c2ccccc21` (stereo not drawn) [H-IR650DIOL, 6-((E)-2-((2Z,4E)-3-bromo-5-(1-(6-hydroxyhexyl)-3,3-dimethylindolin-2-yl)penta-2,4-dien-1-ylidene)-3,3-dimethylindolin-1-yl)hexan-1-ol]: the cell permeability entry in series [3] is “cell permeable”. The water solubility entry in series [4] was “improved water solubility”.
For `CC1(C)\C(=C/C=C(Br)/C=C/C2N(CCCCCCO)c3ccc4ccccc4c3C2(C)C)N(CCCCCCO)c2ccc3ccccc3c21` (stereo not drawn) [H-IR680DIOL] the same measures were “cell permeable” and “improved water solubility”.
Take `CCCN1/C(=C/C=C2\CCCC(/C=C/C3N(CCC)c4ccccc4C3(C)C)=C2c2cccc(F)c2F)C(C)(C)c2ccccc21` (stereo not drawn) [H-IR780F2]: in the series with β actin in A431 lysate (10 μM substrate, 50-200 μM H2O2, 5 min incubation), the “Western blot signal, background and linearity” value was “good signal with high linearity for lower signals and moderate linearity for higher signals”. In addition, in the series on β actin in A431 lysate (Western blots), the “Lower Limit of Detection (LLD)” value was 1.5 ng, the “sensitivity compared to chemiluminescent detection (luminol-based reagent system)” value amounted to 32 fold and the “sensitivity compared to fluorescent dye-conjugated secondary antibody detection” value amounted to 16 fold. Also, in series [2], the “fluorescent intensity in LPS treated cells compared to untreated cells” value was “increased fluorescent intensity in the LPS treated cells compared to the untreated cells”.
In the case of `CCCN1/C(=C/C=C2\CCCC(/C=C/C3N(CCC)c4ccccc4C3(C)C)=C2Cl)C(C)(C)c2ccccc21` (stereo not drawn) [H-IR 780], the “fluorescence signal at approximately 800 nm versus GAM-HRP concentration” value in series [5] is reported as “intensity of the fluorescence signal increased with increasing concentration of GAM-HRP”.
